Experimental data from publication PMC3002932 (PLoS ONE, 2010).

Experiments:
gp120LAV = gp120LAV (Human immunodeficiency virus type 1 group M subtype B, UniProt P03377); conditions: SPR, BIAcore CM5 chip, HBS-EP pH = 7.4; KD±SEM, average from at least 5 independent experiments
Experimental: Surface plasmon resonance (SPR) studies were performed on a BIAcore 3000 system (BiaCore AB, Piscataway, NJ), using BIAcore CM5 sensor chips and HBS-EP running buffer (pH = 7.4) containing 10 mM HEPES, 150 mM NaCl, 3 mM EDTA, and 0.005% polysorbate 20. Proteins/peptides were immobilized on a CM5 sensor chip using the amine coupling method. The chip was activated by mixing 400 mM N-ethyl-N-(3-dimethylaminopropyl)-carbodiimide hydrochloride and 100 mM N-hydroxysuccinimide. Residual reactive groups on the chip surface were blocked using 1.0 M ethanolamine/HCl (pH = 8.5). The flow cell-1 chamber, which served as a control, lacked immobilized protein but was treated with N-ethyl-N-(3-dimethylaminopropyl)-carbodiimide hydrochloride, N-hydroxysuccinimide, and ethanolamine/HCl. Binding signals were corrected for nonspecific binding by subtracting the flow cell-1 signal. To regenerate chip surfaces, bound ligands were removed with 10 mM HCl. Data were analyzed with BIAevaluation 4.1 software (Biacore, Piscataway, NJ).

[1] = NMR studies of oligomerization (data not shown); format: physicochemical; conditions: water, DMSO and their mixtures; limited NMR studies (data not shown)
CXCR4 (HIV-1IIIB) = experiment: p24^gag antigen release assay using PBMCs, CXCR4 strain; format: cell-based; conditions: PBMC based p24^gag antigen release assay
[2] = CD analysis of secondary structure; format: physicochemical; conditions: for disordered / turns / α-helix / β-sheet: Selcon
Experimental: Peptide was scanned at 20 nm per minute in a 0.01 cm path-length cell at 25°C with a sample interval of 0.2 nm. The peptide concentration was determined by UV absorbance at 280 nm. After baseline correction, spectra were expressed as the Mean Residue Ellipticity [θ]MRE. Quantitative estimates of secondary structural contributions were made with Selcon using the spectral basis set for proteins in the Olis Global Works™ software package (Olis Inc., Bogart, GA).

HIV-1 (BaL) = format: cell-based; conditions: TZM-bl assay; HIV-1 BaL (R5); 24 hr; luciferase activity
Experimental: The ability of the analogs to inhibit HIV infection was determined with an assay that determines viral infectivity with an LTR-mediated luciferase reporter construct [37]. In brief, TZM-bl reporter cells are HeLa-derived JC53-BL cells that express high levels of CD4, CXCR4, and CCR5. They also contain reporter cassettes for luciferase and β-galactosidase, both driven by the HIV-1 long terminal repeat [38]). 24 hr after these reporter cells were exposed to R5 lab-adapted strains of HIV-1 (BaL) in the presence of peptides, protection was measured as % reduction in luciferase activity (relative light units) compared to cells infected with virus and peptide vehicle alone.

[3] = tested on: gp41, gp120BAL and gp120LAV; experiment: SPR binding to viral glycoproteins (gp41, gp120BAL, gp120LAV); design: species or system HIV-1
[4] = SDS-PAGE in non-reductive conditions; format: physicochemical; conditions: inconclusive
[5] = 0.25 mM in 10 mM phosphate buffer pH = 6.5, 25°C
[6] = 0.5 mM in 10 mM phosphate buffer pH = 6.5, 25°C
[7] = 0.5 mM in HFIP:10 mM phosphate buffer pH = 6.5 (4∶6, v∶v), 25°C
[8] = 0.5 mM in TFE:10 mM phosphate buffer pH = 6.5 (4∶6, v∶v), 25°C

With “Cha-SC-Chg-R-Chg-RSGSY-Cha-DN-Chg-R-Chg-(D)Cys-CONH2 (disulfide) [GRFN-1]” the Kd (gp120LAV) was 2240 ± 810 nM, the “oligomerization (in words)” value [1] was “Oligomerization of GRFN-1 in various solvents (water, DMSO and their mixtures) was suggested” and the “antiviral activity (in words)” value (CXCR4 (HIV-1IIIB)) was “maintained their antiviral activity”. It also gave a disordered [2, 5] of 30.0%, a turns [2, 5] of 21.0% and a α-helix [2, 5] of 25.0%. The β-sheet [2, 5] was 24.0%, the disordered [2, 6] was 31.0% and the turns [2, 6] was 21.0%. The α-helix [2, 6] was 13.0%, the β-sheet [2, 6] was 35.0% and the disordered [2, 7] was 24.0%. For the same substance, the turns [2, 7] was 16.0%, the α-helix [2, 7] was 52.0% and the β-sheet [2, 7] was 8.0%. For the same substance, the disordered [2, 8] was 30.0%, the turns [2, 8] was 23.0% and the α-helix [2, 8] was 19.0%. For the same substance, the β-sheet [2, 8] was 28.0%, the “secondary structure (in words)” value ([2]; 10 mM phosphate buffer, pH = 6.5, 250 µM) was “almost equal proportions of α-helix, β-sheet, turn and disordered conformations” and the “secondary structure (in words)” value ([2]; 10 mM phosphate buffer, pH = 6.5, 500 µM vs 250 µM) was “β-sheet structure increases at the expense of α-helix”. For the same substance, the “secondary structure (in words)” value ([2]; HFIP:buffer) was “dominant helical conformation”, the “secondary structure (in words)” value ([2]; TFE:buffer) was “mix of α-helix, β-sheet, turns” and the “concentration dependence of conformation” value ([2]; TFE:buffer and HFIP:buffer, 50 to 500 µM (data not shown)) was “not concentration dependent”. The EC50 (HIV-1 (BaL)) was 191 ± 11 nM, the “binding (in words)” value [3] was “binds gp41, gp120BAL and gp120LAV in a dose dependent manner” and the “apparent size of dimers” value [4] was roughly 4.5 kDa.
